Experimental data taken from patent US10610509B2, “Combinations of prostaglandins and nitric oxide donors” (NICOX S.A., priority 2014, dated 2020).

Tests used:
[1] = system: ocular normotensive New Zealand White (NZW) rabbits; assay: Intraocular pressure (IOP) lowering activity in ocular normotensive NZW rabbits; type: in vivo; settings: versus vehicle and versus basal IOP, mean±standard error, compound (12) 0.1%, travoprost 0.004% eye drops
Procedure: Intraocular Pressure (IOP) Lowering Activity in Ocular Normotensive New Zealand White (NZW) Rabbits
The Intraocular pressure (IOP) lowering activity of the combination of compound (12) (0.1%) and travoprost (0.004%) was assessed in ocular normotensive rabbits.
Adults male NZW rabbits weighting 1.8-2.0 Kg were used in the experiments.
IOP was measured using a pneumatonometer 30 CLASSIC™ before topical application (basal) and at different time points (30, 60, 120, 180, 240 and 300 min) thereafter. Travoprost (0.004%) or vehicle (5% cremophor-EL; 0.3% DMSO; 0.2 mg/ml BAC in PBS pH 6.0) were topically administered 5 minutes prior to compound (12) (0.1%) or vehicle (same as above) as eye drops into the conjunctiva pocket. Eyes were randomly assigned to different treatment groups. One drop of 0.4% oxybuprocaine hydrochloride (Novesine, Sandoz) was instilled in each eye immediately before each set of ocular pressure measurements.
Results are reported in the table in which the ocular hypotensive activity of the combination, of compound (12) and of travoprost are expressed as IOP change (at 30, 60, 120 and 300 minutes following topical administration) versus vehicle and versus IOP at basal (mean±standard error).

[2] = system: ocular hypertensive New Zealand White (NZW) rabbits; assay: Intraocular pressure (IOP) lowering activity in ocular hypertensive NZW rabbits (hypertonic saline injection); type: in vivo; settings: versus vehicle and versus basal IOP, mean±standard error, compound (12) 0.3%, travoprost 0.004% topical, hypertonic saline (5%) intravitreal
Procedure: Intraocular Pressure (IOP) Lowering Activity in Ocular Hypertensive New Zealand White (NZW) Rabbits
The Intraocular pressure (IOP) lowering activity of the combination of compound (12) (0.3%) and travoprost (0.004%) was assessed in ocular hypertensive rabbits.
Adult male NZW rabbits weighting 1.8-2.0 Kg were used in the experiments.
NZW rabbits were injected with 0.1 ml of hypertonic saline (5%) into the vitreous humor of both eyes. IOP was measured using a Tono-Pen AVIA Vet® at different time points (30, 60, 120 and 240 min) following hypertonic saline injection as well as before topical drug application (basal).
Travoprost (0.004%) or vehicle (5% cremophor-EL; 0.3% DMSO; 0.2 mg/ml BAC in PBS pH 6.0) were topically administered 15 min before hypertonic saline injection.
Compound (12) (0.3%) or vehicle (5% cremophor-EL; 0.3% DMSO; 0.2 mg/ml BAC in PBS pH 6.0) were topically administered immediately after hypertonic saline injection. Eyes were randomly assigned to different treatment groups.
One drop of 0.4% oxybuprocaine hydrochloride (Novesine, Sandoz) was instilled in each eye immediately before each set of ocular pressure measurements.
The ocular hypotensive effects (at […] following topical administration) of travoprost, compound (12) and the combination of compound (12) and travoprost are reported in table 2.
The results reported in table 2 are expressed as IOP change (at 30, 60, 120 and 300 minutes following topical administration) versus vehicle and versus IOP at basal (mean±standard error).

[3] = 30 minutes after topical administration
[4] = 60 minutes after topical administration
[5] = 120 minutes after topical administration
[6] = 180 minutes after topical administration
[7] = 300 minutes after topical administration

Row | SMILES | IOP change [1, 3] | IOP change [1, 4] | IOP change [1, 5] | IOP change [1, 6] | IOP change [1, 7] | IOP change ([2]; 30 minutes) | IOP change ([2]; 60 minutes) | IOP change ([2]; 120 minutes) | IOP change ([2]; 240 minutes)
1 | O=C(CCC[C@@H](CO[N+](=O)[O-])O[N+](=O)[O-])O[C@@H]1CO[C@H]2[C@@H]1OC[C@H]2O [Compound (12), (S)-((3R,3aR,6R,6aR)-6-hydroxyhexahydrofuro[3,2-b]furan-3-yl) 5,6-bis(nitrooxy)hexanoate] | −1.4 ± 0.6 mmHg | −2.1 ± 0.4 mmHg | −0.3 ± 0.3 mmHg | 0.1 ± 0.5 mmHg | 1.1 ± 0.8 mmHg | −2.4 ± 0.6 mmHg | −7.7 ± 0.5 mmHg | −6.4 ± 0.5 mmHg | −1.8 ± 0.6 mmHg
2 | CC(C)OC(=O)CCC/C=C\C[C@@H]1[C@@H](/C=C/[C@@H](O)COc2cccc(C(F)(F)F)c2)[C@H](O)C[C@@H]1O [Travoprost, 5-heptenoic acid, 7-[(1R,2R,3R,5S)-3,5-dihydroxy-2-[(1E,3R)-3-hydroxy-4-[3-(trifluoromethyl)phenoxy]-1-buten-1-yl]cyclopentyl]-, 1-methylethyl ester, (5Z)-] | −1.6 ± 1.6 mmHg | −0.9 ± 1.0 mmHg | −1.1 ± 1.2 mmHg | −0.8 ± 0.4 mmHg | −0.6 ± 0.1 mmHg | −2.4 ± 0.5 mmHg | −5.0 ± 0.8 mmHg | −5.1 ± 0.7 mmHg | −1.7 ± 0.4 mmHg
